Measured values reported in ChEMBL document CHEMBL1152396, “Cardenolides from Pergularia tomentosa display cytotoxic activity resulting from their potent inhibition of Na+/K+-ATPase” (J Nat Prod, 2009).
Activity calls are given as the source filed them. The rule behind the calls is not given here.

Columns and labels:
LoVo = assay: Antiproliferative activity against human LoVo cells after 72 hrs by MTT assay; assay type: functional, cell-based
A549 [1] = assay: Antiproliferative activity against human A549 cells after 72 hrs by MTT assay; assay type: functional, cell-based; conditions: A549, 72 h
U-373MG ATCC [2] = assay: Induction of human U373 cell growth delay assessed as morphological changes at 400 nM after 3 days by video microscopy; assay type: functional, cell-based
A549 [3] = assay: Induction of human A549 cell death assessed as morphological changes at 200 nM after 3 days by video microscopy; assay type: functional, cell-based
U-373MG ATCC [4] = assay: Induction of human U373 cell death assessed as morphological changes at 400 nM after 3 days by video microscopy; assay type: functional, cell-based
MCF7 = assay: Antiproliferative activity against human MCF7 cells after 72 hrs by MTT assay; assay type: functional, cell-based; conditions: MCF7, 72 h
PC-3 = assay: Antiproliferative activity against human PC3 cells after 72 hrs by MTT assay; assay type: functional, cell-based; conditions: PC-3, 72 h
A549 [5] = assay: Induction of human A549 cell growth delay assessed as morphological changes at 200 nM after 3 days by video microscopy; assay type: functional, cell-based
BXPC-3 = assay: Antiproliferative activity against human BxPC3 cells after 72 hrs by MTT assay; assay type: functional, cell-based; conditions: BXPC-3, 72 h
[6] = Inhibition of pig cerebral cortex Na+/K+-ATPase by colorimetric microplate-based assay; assay type: tissue-based, Sus scrofa
[7] = Antiproliferative activity against human U373 cells after 72 hrs by MTT assay; assay type: functional, cell-based, U-373MG ATCC; conditions: U373 MG
Sus scrofa = species on record: Sus scrofa; assay: Inhibition of pig cerebral cortex Na+/K+ ATPase at 1 mM by colorimetric microplate-based assay; assay type: tissue-based
A549 [8] = assay: Induction of human A549 cell death assessed as morphological changes at 80 nM after 3 days by video microscopy; assay type: functional, cell-based
A549 [9] = assay: Induction of human A549 cell growth delay assessed as morphological changes at 80 nM after 3 days by video microscopy; assay type: functional, cell-based
U-373MG ATCC [10] = assay: Induction of human U373 cell death assessed as morphological changes at 3.4 uM after 3 days by video microscopy; assay type: functional, cell-based
U-373MG ATCC [11] = assay: Induction of human U373 cell growth delay assessed as morphological changes at 3.4 uM after 3 days by video microscopy; assay type: functional, cell-based
A549 [12] = assay: Induction of human A549 cell growth delay assessed as morphological changes at 800 nM after 3 days by video microscopy; assay type: functional, cell-based
A549 [13] = assay: Induction of human A549 cell death assessed as morphological changes at 800 nM after 3 days by video microscopy; assay type: functional, cell-based

| Compound | IC50 (LoVo) | IC50 (A549 [1]) | Activity (U-373MG ATCC [2]) | Activity (A549 [3]) | Activity (U-373MG ATCC [4]) | IC50 (MCF7) | IC50 (PC-3) | Activity (A549 [5]) | IC50 (BXPC-3) | IC50 [6] | IC50 [7] | inhibition (Sus scrofa) | Activity (A549 [8]) | Activity (A549 [9]) | Activity (U-373MG ATCC [10]) | Activity (U-373MG ATCC [11]) | Activity (A549 [12]) | Activity (A549 [13]) |
| --- | --- | --- | --- | --- | --- | --- | --- | --- | --- | --- | --- | --- | --- | --- | --- | --- | --- | --- |
| C[C@@H]1C[C@@H](O[C@H]2O[C@H](CO)[C@@H](O)[C@H](O)[C@H]2O)[C@]2(O)O[C@@H]3C[C@@]4(C=O)[C@@H](CC[C@@H]5[C@@H]4CC[C@]4(C)[C@@H](C6=CC(=O)OC6)CC[C@]54O)C[C@H]3O[C@@H]2O1 | 400 nM | 200 nM | Active | Active | Active | 300 nM | 200 nM | Active | 500 nM | 500 nM | 400 nM | – | – | – | – | – | – | – |
| C[C@]12CC[C@H]3[C@@H](CC[C@H]4C[C@H]5O[C@@H]6O[C@H](CO)C[C@@H](O)[C@]6(O)O[C@@H]5C[C@@]43C=O)[C@@]1(O)CC[C@@H]2C1=CC(=O)OC1 | 900 nM | 80 nM | – | – | – | 500 nM | 300 nM | – | 600 nM | 500 nM | 400 nM | – | – | – | – | – | – | – |
| C[C@@H]1C[C@@H](O)[C@]2(O)O[C@@H]3C[C@@]4(C=O)[C@@H](CC[C@@H]5[C@@H]4CC[C@]4(C)[C@@H](C6=CC(=O)OC6)CC[C@]54O)C[C@H]3O[C@@H]2O1 [CALACTIN] | 50 nM | 20 nM | – | – | – | 40 nM | 20 nM | – | 80 nM | 400 nM | 200 nM | – | – | – | – | – | – | – |
| C[C@]12CC[C@H]3[C@@H](CC[C@H]4C[C@H]5O[C@@H]6O[C@H](CO)C[C@@H](O)[C@]6(O)O[C@@H]5C[C@@]43CO)[C@@]1(O)CC[C@@H]2C1=CC(=O)OC1 | 200 nM | 40 nM | – | – | – | 400 nM | 40 nM | – | 300 nM | 400 nM | 100 nM | – | – | – | – | – | – | – |
| C[C@@H]1CC2(NC(=O)CS2)[C@]2(O)O[C@@H]3C[C@@]4(CO)[C@@H](CC[C@@H]5[C@@H]4CC[C@]4(C)[C@@H](C6=CC(=O)OC6)CC[C@]54O)C[C@H]3O[C@@H]2O1 (stereo not given in full) | – | 8 nM | – | – | – | – | – | – | – | – | – | – | – | – | – | – | – | – |
| C[C@@H]1O[C@@H](O[C@H]2C[C@@H](O)[C@]3(CO)[C@H]4[C@H](O)C[C@]5(C)[C@@H](C6=CC(=O)OC6)CC[C@]5(O)[C@@H]4CC[C@]3(O)C2)[C@H](O)[C@H](O)[C@H]1O | – | – | – | – | – | – | – | – | – | – | – | 100% | – | – | – | – | – | – |
| C[C@]12[C@H](O)C[C@H]3[C@@H](CC[C@H]4C[C@H]5O[C@@H]6O[C@H](CO)C[C@@H](O)[C@]6(O)O[C@@H]5C[C@@]43CO)[C@@]1(O)CC[C@@H]2C1=CC(=O)OC1 [GHALAKINOSIDE] | 300 nM | 80 nM | Active | – | Active | 300 nM | 80 nM | – | 300 nM | 300 nM | 400 nM | – | Active | Active | – | – | – | – |
| C[C@@H]1C[C@@H](O)[C@]2(O)O[C@@H]3C[C@@]4(C=O)[C@@H](CC[C@@H]5[C@@H]4CC[C@]4(C)[C@@H](C6=CC(=O)OC6)[C@H](O)C[C@]54O)C[C@H]3O[C@@H]2O1 | 4400 nM | 400 nM | – | – | – | 3800 nM | 1000 nM | – | 2300 nM | 1700 nM | 2600 nM | – | – | – | – | – | – | – |
| CC(=O)O[C@@H]1C[C@]2(O)[C@@H]3CC[C@H]4C[C@H]5O[C@@H]6O[C@H](CO)C[C@@H](O)[C@]6(O)O[C@@H]5C[C@]4(C=O)[C@H]3CC[C@]2(C)[C@H]1C1=CC(=O)OC1 | 6400 nM | 800 nM | – | – | – | 4100 nM | 1200 nM | – | 4400 nM | 1200 nM | 3400 nM | – | – | – | Active | Active | Active | Active |
| C[C@@H]1C[C@@H](O)[C@]2(O)O[C@@H]3C[C@@]4(CO)[C@@H](CC[C@@H]5[C@@H]4C[C@@H](O)[C@]4(C)[C@@H](C6=CC(=O)OC6)CC[C@]54O)C[C@H]3O[C@@H]2O1 | 300 nM | 50 nM | – | – | – | 300 nM | 50 nM | – | 300 nM | 700 nM | 400 nM | – | – | – | – | – | – | – |
